Measurements as given in a melting point compilation (Tetko et al.; mined from patent text by program, amines drawn as free bases though some values may be those of a salt).
Counter-ions that a name gives are not always drawn. Residues, ends and D or L forms follow the SMILES beside them. *: point of attachment. Tfa = O=C(C(F)(F)F)*

Point of comparison: CCCCc1nc2c(n1Cc1ccc(-c3ccccc3S(=O)(=O)NC(=O)NCCC)cc1)C(=NO)CCS2, melting point 178 °C. Against it:
- CN1CCc2c(-c3ccc(F)cc3)c(C(=O)N(C)Cc3cc(C(F)(F)F)cc(C(F)(F)F)c3)n(C)c(=O)c2C1 — lower, 156 to 157 °C
- CCc1oc(-c2ccc(S(C)(=O)=O)cc2)c(Oc2ccc(F)cc2F)c(=O)c1C — higher, 200 °C
- N#Cc1ccc(N2CCN(CCC3CCc4ccccc43)CC2)cc1 (centres undefined) — lower, 157 to 158 °C
- CCCn1c(=O)c2c(nc(C=Cc3cc(OC)c(OC)cc3S(N)(=O)=O)n2C)n(CCC)c1=O — higher, 266 to 268 °C
- O=C1N(C(c2ccccc2)c2ccccc2)c2ccccc2C12COc1cc3c(cc12)OCCCO3 (centres undefined) — lower, 165 to 168 °C
- CNC(=O)c1cc2n(n1)-c1ccc(Cl)cc1C(c1ccccc1)=NC2 — lower, 170 to 172 °C
- CC(C)C(C(=O)O)N1CC(N)C1=O (centres undefined) — not separable, 178 to 183 °C
- Cc1oc(-c2ccccc2)nc1C(O)COc1ccc(N)cc1 (centres undefined) — lower, 139 to 140 °C
- O=C(c1[nH]c2ccccc2c1Sc1ccccn1)N1CCCC1 — higher, 211 to 213 °C
- O=c1oc(-c2ccc(Sc3ccccc3)cc2)cc(O)c1SCCc1ccccc1 — lower, 120 to 121 °C
- CN(C(=O)C1(C(=O)O)CC1)c1ccc(Cl)cc1 — lower, 156 to 158 °C
- ON=C1CCSc2sccc21 — lower, 123 to 124 °C
- CC(=O)N1CCC(CNCc2ccc(C=CC(=O)Nc3ccc(-c4ccc(Cl)cc4)cc3)cc2)CC1 — higher, 225 to 226 °C
- CN(CCO)Cc1cc(C(=O)c2ccccc2)cc(C(C)(C)C)c1O — lower, 118 to 119 °C
- CN1C(=O)C(=Cc2cc(O)c(O)c([N+](=O)[O-])c2)SC1=S — higher, 274 to 276 °C
- CC1CC(=O)NN=C1c1ccc(-c2ccc(=O)[nH]n2)cc1 (centres undefined) — higher, > 250 °C
- Cc1ccnc(-c2cc(CO)ccn2)c1 — lower, 110 to 112 °C
- COc1ccc(C(=O)Nc2ccc(C3(CNC(=O)c4cscn4)CCCC3)cc2)cc1OC — lower, 101 to 104 °C
- O=C(Nc1cccc2c1C(=O)c1c-2n[nH]c1-c1ccc(N2CCNCC2)cc1)NN1CCN(CCO)CC1 — higher, 279 °C
- CC(=O)C(=C1SCCCN1C(C)=O)[N+](=O)[O-] — lower, 73.5 to 76 °C
- CCOC(=O)c1cnn2c(C=O)c(Cc3cccc(F)c3C)c(-c3ccccc3)c2c1Cl — lower, 110 to 111 °C
- CC(C)(C)c1csc(-c2cc3cc(CCl)ccc3o2)n1 — lower, 117 to 119 °C
- CCC(=O)c1ccc(OC)c(C)c1C — lower, 39 to 40 °C
- Cc1ccc(S(=O)(=O)N(C)c2ccc(S(C)(=O)=O)cc2C#N)cc1 — higher, 179 to 180 °C
- COC(=O)c1sc2ccc(CCl)cc2c1C — lower, 115 to 116 °C
- Cc1sc2ccc(Cl)cc2c1C1=NCCO1 — lower, 100 to 102 °C
- O=C1NC(N2CCN(c3cnccn3)CC2)c2ccccc21 (centres undefined) — higher, 242 to 246 °C
- CCOC(=O)CNC(=O)CCCCCNC(=O)c1cccc(C(F)(F)F)c1 — lower, 102 to 104 °C
- COc1ncccc1NC(=O)C1(O)CCCn2c1nc(-c1ccncn1)cc2=O (racemic) — higher, 208 to 210 °C
- COC(=O)C(CCSC)NC(=O)c1ccc(CS(=O)(=O)c2cccnc2)cc1-c1ccccc1 (centres undefined) — lower, 152 to 154 °C
- C1=CC(Nc2ccccc2)C(=Nc2ccccc2)N1 (centres undefined) — lower, 137 to 139 °C
- CC(=C(c1ccccc1)c1ccccc1)P(c1ccccc1)c1ccccc1 — lower, 128 to 130 °C
- COc1cccc(C(O)CNCCc2ccc(OC)c(OC)c2Cl)c1 (centres undefined) — lower, 95.5 to 96.5 °C
- CN1CCC(O)(C2CC(c3ccc(-c4ccc(N5C[C@H](Cn6ccnn6)OC5=O)cc4F)cn3)=NO2)CC1 (some centres undefined) — lower, 73 °C
- CC(=O)NC[C@H]1CN(c2ccc(N3CCC4(CC3)NCCO4)c(F)c2)C(=O)O1 — lower, 138 to 140 °C
- O=C1C=C(c2ccc[nH]2)C(=O)c2ccccc21 — lower, 155 to 158 °C
- COc1cccc(C2CCCN(C(=O)N(C)O)C2)c1 (centres undefined) — lower, 96 to 98 °C
- O=C(O)CNC(=O)CNC(=O)C(F)(F)F (Tfa-Gly-Gly-OH) — higher, 185 °C
